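Assay format: 96-well plates, 48-hour exposure. GI50: concentration for 50% inhibition of growth. The concentration for full growth arrest is given as TGI.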
Experiments:
Assay in all cases: growth of human tumour cells (NCI), 48 h
[1] = test system: DU-145 prostate
[2] = test system: UO-31 renal
[3] = test system: HOP-62 NSCLC
[4] = test system: OVCAR-5 ovarian
[5] = test system: RPMI-8226 leukemia
[6] = test system: HCC-2998 colon
[7] = test system: NCI-H522 lung
[8] = test system: OVCAR-3 ovarian
[9] = test system: IGROV1 ovarian
[10] = test system: MDA-MB-435
[11] = test system: KM12 colon
[12] = test system: CCRF-CEM leukemia
[13] = test system: OVCAR-8 ovarian
[14] = test system: HOP-92 NSCLC
[15] = test system: NCI-H226 lung
[16] = test system: LOX IMVI melanoma
[17] = test system: UACC-62 melanoma
[18] = test system: COLO 205 colon
[19] = test system: OVCAR-4 ovarian
[20] = test system: MCF7 breast
[21] = test system: MDA-MB-231 breast
[22] = test system: NCI-H460 lung
[23] = test system: EKVX NSCLC
[24] = test system: UACC-257 melanoma
[25] = test system: HS 578T breast
[26] = test system: A498 renal
[27] = test system: TK-10 renal
[28] = test system: NCI/ADR-RES ovarian
[29] = test system: SK-OV-3 ovarian

CCCn1cc(/C=N\N=C2\C(=O)Nc3ccc(C)cc32)c2ccccc21 was tested, and the TGI [1] was 40.6 µM, the GI50 [2] was 2.28 µM and the TGI [2] was 61.8 µM. The GI50 [3] was 4.17 µM, the TGI [3] was 25 µM and the GI50 [4] was 4.04 µM. It also gave a TGI [4] of 25.8 µM, a GI50 [5] of 1.33 µM and a TGI [5] of 3.96 µM. For the same molecule, the GI50 [6] was 2.09 µM, the TGI [6] was 5.14 µM and the GI50 [7] was 1.81 µM. For the same molecule, the TGI [7] was 6.59 µM, the GI50 [8] was 1.36 µM and the TGI [8] was 5.11 µM. It also gave a GI50 [9] of 3.38 µM, a TGI [9] of 63.1 µM and a GI50 [10] of 1.5 µM. It also gave a TGI [10] of 2.96 µM, a GI50 [11] of 3.22 µM and a TGI [11] of 19.7 µM. For the same molecule, the GI50 [12] was 1.94 µM, the TGI [12] was over 100 µM and the GI50 [13] was 5.41 µM. It also gave a TGI [13] of over 100 µM, a GI50 [14] of 1.87 µM and a TGI [14] of 6.57 µM. The GI50 [15] was 2.95 µM, the TGI [15] was 20.6 µM and the GI50 [16] was 1.26 µM. For the same molecule, the TGI [16] was 3.06 µM, the GI50 [17] was 2.24 µM and the TGI [17] was 12.1 µM. The GI50 [18] was 1.25 µM, the TGI [18] was 3.06 µM and the GI50 [19] was 0.935 µM. For the same molecule, the TGI [19] was 25.6 µM, the GI50 [20] was 1.54 µM and the TGI [20] was 15.5 µM. For the same molecule, the GI50 [21] was 1.81 µM, the TGI [21] was 7.4 µM and the GI50 [22] was 2.17 µM. For the same molecule, the TGI [22] was 10.6 µM, the GI50 [23] was 2.36 µM and the TGI [23] was over 100 µM. For the same molecule, the GI50 [24] was 12.3 µM, the TGI [24] was 66.6 µM and the GI50 [25] was 11.3 µM. The TGI [25] was over 100 µM, the GI50 [26] was 1.37 µM and the TGI [26] was 7.5 µM. It also gave a GI50 [27] of 11.1 µM, a TGI [27] of over 100 µM and a GI50 [28] of 6.39 µM. It also gave a TGI [28] of 89.9 µM, a GI50 [29] of 11.7 µM and a TGI [29] of 67.1 µM.
